# Source: patent US20210267989A1, “Novel Compounds for the Treatment, Alleviation or Prevention of Disorders Associated with Tau Aggregates” (AC Immune SA, priority 2018, published 2021)
# Biological target: T1, Tau K18 fragment aggregates (amino acids 244 to 372 of human Tau441) (Homo sapiens, UniProt P10636)
# T1 construct: encompassing amino acids 244 to 372 of the longest isoform (2N4R) of human Tau441; host or cells: bacteria
# Experiment: Tau K18 disaggregation assay by ThT
# Format: biochemical
# Details: ThT fluorescence; 2 μM K18 aggregates, 30 minutes at RT
# Procedure: Tau K18 Disaggregation Assay by ThT
# The Tau K18 fragment, encompassing amino acids 244 to 372 of the longest isoform (2N4R) of human Tau441, was expressed in bacteria and purified or bought from SignalChem. For the K18 disaggregation assay by ThT, 35 μM of recombinant K18 in PBS were aggregated for 24 hours at 37° C. in presence of 50 μM of heparin (Sigma-Aldrich) and 10 mM of DTT (Sigma-Aldrich) under shaking at 750 RPM. Compounds were dissolved in anhydrous dimethyl sulfoxide (DMSO, Sigma-Aldrich) to reach a concentration of 10 mM. K18 aggregates and serial dilutions of compounds were mixed together in PBS (volume 50 μL) to a final concentration of 2 μM of K18 aggregates and from 160 to 0.04 μM of compounds. The mixture was incubated for 30 minutes at room temperature (RT), then 40 μL of this mixture were transferred into a black 384-well plate assay (Perkin-Elmer) and mixed with 10 μL of 100 μM ThT in 250 mM glycine (both from Sigma-Aldrich) in PBS. Fluorescence (relative fluorescence units; RFU) was measured in monoplicate or duplicate on a Tecan reader (excitation: 440 nm; emission: 485 nm). Percentage of K18 disaggregation was then calculated and half maximal effective concentration (E050) was determined using GraphPad Prism version 5 (GraphPad Software) assuming a one-binding site fitting model.
# T1 sequence (P10636 561-689): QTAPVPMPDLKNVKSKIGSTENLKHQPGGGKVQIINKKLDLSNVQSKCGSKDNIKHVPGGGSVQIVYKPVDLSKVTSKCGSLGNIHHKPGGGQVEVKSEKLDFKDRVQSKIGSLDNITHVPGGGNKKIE
compound,measurement,value
c1ccc2c3c([nH]c2c1)CN(c1nc2ccc(N4CCOCC4)cc2o1)CC3 [Example 102],EC50,< 10 µM
Fc1cccc2c3c([nH]c12)CN(c1ccc(N2CCOCC2)nc1)CC3 [Example 92],EC50,< 10 µM
Fc1ccc2[nH]c3c(c2c1)CCN(c1ccc2nc(N4CCOCC4)ccc2c1)C3 [Example 122],EC50,< 10 µM
Fc1ccc2[nH]c3c(c2c1)CCN(c1cnc(N2CCOCC2)c(F)c1)C3 [Example 48],EC50,< 10 µM
Fc1ccc2[nH]c3c(c2c1)CCN(c1cncc(N2CCOCC2)c1)C3 [Example 50],EC50,10 to 25 µM
c1ccc2c3c([nH]c2c1)CN(c1ccc2sc(N4CCOCC4)nc2c1)CC3 [Example 37],EC50,10 to 25 µM
CN(C)c1nc2cc(N3CCc4c([nH]c5ccc(F)cc45)C3)ccc2s1 [Example 42],EC50,< 10 µM
COc1ccc2[nH]c3c(c2c1)CCN(c1ccc2nc(N4CCOCC4)sc2c1)C3 [Example 31],EC50,< 10 µM
Cn1c2c(c3ccccc31)CCN(c1ccc3oc(N4CCOCC4)nc3c1)C2 [Example 100],EC50,< 10 µM
CN(C)c1nc2cc(N3CCc4c([nH]c5ccc(F)cc45)C3)ccc2o1 [Example 28],EC50,< 10 µM
COC1CCN(c2ccc(N3CCc4c([nH]c5ccccc45)C3)nn2)CC1 [Example 117],EC50,< 10 µM
c1ccc2c3c([nH]c2c1)CN(c1ccc2oc(N4CCOCC4)nc2c1)CC3 [Example 99],EC50,< 10 µM
Fc1ccc2[nH]c3c(c2c1)CCN(c1ccc2ccc(N4CCOCC4)nc2c1)C3 [Example 121],EC50,10 to 25 µM
Fc1ccc2[nH]c3c(c2c1)CCN(c1ccc2oc(N4CCOCC4)nc2c1)C3 [Example 25],EC50,< 10 µM
c1ccc2c3c([nH]c2c1)CN(c1ccc(N2CCOCC2)cc1)CC3 [Example 59],EC50,< 10 µM
Fc1ccc2[nH]c3c(c2c1)CCN(c1ccc(N2CCOCC2)nc1)C3 [Example 40],EC50,< 10 µM
Fc1ccc2[nH]c3c(c2c1)CCN(c1cc2sc(N4CCOCC4)nc2cn1)C3 [Example 49],EC50,< 10 µM
N#Cc1ccc(N2CCc3c([nH]c4ccccc34)C2)cn1 [Example 113],EC50,< 10 µM
CN(C)c1nc2ccc(N3CCc4c([nH]c5ccc(F)cc45)C3)cc2o1 [Example 27],EC50,< 10 µM
Fc1ccc2c3c([nH]c2c1)CN(c1ccc(N2CCOCC2)cc1)CC3 [Example 57],EC50,< 10 µM
Cn1c2c(c3c(F)cccc31)CCN(c1ccc3oc(N4CCOCC4)nc3c1)C2 [Example 90],EC50,< 10 µM
Fc1ccc2c3c([nH]c2c1)CN(c1ccc(N2CCOCC2)c(F)c1)CC3 [Example 52],EC50,< 10 µM
Cn1c2c(c3ccccc31)CCN(c1nc3cc(N4CCOCC4)ccc3o1)C2 [Example 101],EC50,< 10 µM
CN1CCN(c2ccc(N3CCc4c([nH]c5cc(F)ccc45)C3)cc2)CC1 [Example 62],EC50,10 to 25 µM
COc1ccc2[nH]c3c(c2c1)CCN(c1ccc2oc(N(C)C)nc2c1)C3 [Example 39],EC50,< 10 µM
Fc1cc(N2CCc3c([nH]c4ccccc34)C2)ccc1N1CCOCC1 [Example 58],EC50,< 10 µM
C[C@@H]1CN(c2ccc(N3CCc4c([nH]c5ccccc45)C3)nn2)CCO1 [Example 119],EC50,< 10 µM
Fc1ccc2[nH]c3c(c2c1)CCN(c1ccc(N2CCOCC2)cn1)C3 [Example 41],EC50,< 10 µM
C[C@@H]1CN(c2ccc(N3CCc4c([nH]c5ccccc45)C3)cn2)C[C@H](C)O1 [Example 76],EC50,< 10 µM
c1ccc2c3c([nH]c2c1)CN(c1ccc(N2C[C@@H]4C[C@H]2CO4)nc1)CC3 [Example 86],EC50,< 10 µM
Cn1c2c(c3ccccc31)CCN(c1ccc(C#N)nc1)C2 [Example 112],EC50,< 10 µM
Fc1ccc2c3c([nH]c2c1)CN(c1cnc(N2CCOCC2)c(F)c1)CC3 [Example 51],EC50,10 to 25 µM
COc1ccc2[nH]c3c(c2c1)CCN(c1ccc2nc(N(C)C)oc2c1)C3 [Example 36],EC50,< 10 µM
Fc1ccc2[nH]c3c(c2c1)CCN(c1ccc(N2CCOCC2)cc1)C3 [Example 55],EC50,< 10 µM
CN1CCN(c2cnc(N3CCc4c(n(C)c5ccccc45)C3)cn2)CC1 [Example 94],EC50,10 to 25 µM
Cn1c2c(c3ccccc31)CCN(c1ccc(N3CCOCC3)nn1)C2 [Example 96],EC50,< 10 µM
Fc1cccc2[nH]c3c(c12)CCN(c1ccc(N2CCOCC2)nc1)C3 [Example 87],EC50,< 10 µM
CN1CCN(c2nc3cc(N4CCc5c([nH]c6ccccc56)C4)ccc3o2)CC1 [Example 98],EC50,25 to 50 µM
c1ccc2c3c([nH]c2c1)CN(c1ccc(N2C4COCC2C4)nc1)CC3 [Example 70],EC50,< 10 µM
Fc1cccc2c3c([nH]c12)CN(c1ccc2oc(N4CCOCC4)nc2c1)CC3 [Example 93],EC50,< 10 µM
Fc1ccc2[nH]c3c(c2c1)CCN(c1cnc2nc(N4CCOCC4)sc2c1)C3 [Example 53],EC50,< 10 µM
Fc1cccc2[nH]c3c(c12)CCN(c1ccc(N2CCOCC2)cn1)C3 [Example 88],EC50,< 10 µM
COc1ccc2[nH]c3c(c2c1)CCN(c1ccc2nc(N(C)C)sc2c1)C3 [Example 35],EC50,< 10 µM
Fc1cccc2[nH]c3c(c12)CCN(c1ccc2oc(N4CCOCC4)nc2c1)C3 [Example 89],EC50,< 10 µM
CN1CCN(c2ccc(N3CCc4c(n(C)c5ccccc45)C3)cn2)CC1 [Example 95],EC50,25 to 50 µM
C[C@@H]1CN(c2ccc(N3CCc4c([nH]c5ccccc45)C3)nn2)C[C@H](C)O1 [Example 120],EC50,< 10 µM
COc1ccc2[nH]c3c(c2c1)CCN(c1ccc2nc(N4CCOCC4)oc2c1)C3 [Example 32],EC50,< 10 µM
C[C@H]1CN(c2ccc(N3CCc4c([nH]c5ccccc45)C3)nn2)CCO1 [Example 118],EC50,< 10 µM
CN1CCN(c2nc3cc(N4CCc5c(n(C)c6ccccc56)C4)ccc3o2)CC1 [Example 97],EC50,10 to 25 µM
Fc1ccc2[nH]c3c(c2c1)CCN(c1ccc2nc(N4CCOCC4)oc2c1)C3 [Example 24],EC50,< 10 µM
Fc1ccc2[nH]c3c(c2c1)CCN(c1ccc2nc(N4CCOCC4)sc2n1)C3 [Example 54],EC50,< 10 µM
Cn1c2c(c3cccc(F)c31)CCN(c1ccc3oc(N4CCOCC4)nc3c1)C2 [Example 91],EC50,< 10 µM
Fc1ccc2[nH]c3c(c2c1)CCN(c1ccc2sc(N4CCOCC4)nc2c1)C3 [Example 22],EC50,< 10 µM
Cn1c2c(c3ccccc31)CCN(c1nc3ccc(N4CCOCC4)cc3o1)C2 [Example 67],EC50,< 10 µM
CN(C)c1nc2ccc(N3CCc4c(n(C)c5ccc(F)cc45)C3)cc2s1 [Example 29],EC50,< 10 µM
c1ccc2c3c([nH]c2c1)CN(c1ccc(N2CCOC4(CCC4)C2)nc1)CC3 [Example 77],EC50,< 10 µM
c1ccc2c3c([nH]c2c1)CN(c1ccc(N2CCOCC2)nn1)CC3 [Example 68],EC50,< 10 µM
COc1ccc2[nH]c3c(c2c1)CCN(c1ccc2sc(N4CCOCC4)nc2c1)C3 [Example 30],EC50,< 10 µM
COc1ccc2[nH]c3c(c2c1)CCN(c1ccc2oc(N4CCOCC4)nc2c1)C3 [Example 33],EC50,10 to 25 µM
Fc1ccc2[nH]c3c(c2c1)CCN(c1ccc2nc(N4CCOCC4)sc2c1)C3 [Example 23],EC50,< 10 µM
Fc1ccc2[nH]c3c(c2c1)CCN(c1ccc(N2CCOCC2)cc1F)C3 [Example 56],EC50,< 10 µM
COc1ccc2[nH]c3c(c2c1)CCN(c1ccc2sc(N(C)C)nc2c1)C3 [Example 34],EC50,< 10 µM
Fc1ccc2c3c([nH]c2c1)CN(c1ccc2oc(N4CCOCC4)nc2c1)CC3 [Example 103],EC50,< 10 µM
